Among the data in US10577373B2, “TYK2 inhibitors and uses thereof” (Nimbus Lakshmi, Inc., priority 2017, dated 2020) are IC50 values, retold here.

Assay [1] relates to IL-12 induced STAT4 phophorylation mediated by Tyk2/JAK2 (heterodimeric complex). The assay can be described thus: IL-12 Induced pSTAT4 in Human PBMC. Type of assay: cell-based. The note with it: 1.7 ng/mL IL-12. The source says: The IL-12 Induced pSTAT4 assay evaluates the inhibition of IL-12 induced STAT4 phophorylation mediated by Tyk2/JAK2 (heterodimeric complex).
For assay [2], the system named is GM-CSF induced STAT5 phosphorylation mediated by the JAK2/JAK2 homdimeric complex. Kind of assay: GM-CSF Induced pSTAT5 in Human PBMC.
Excerpt: Human PBMC are isolated from buffy coat and are stored frozen for assays as needed.
Where [3] appears, read: Homo sapiens, PBMC, 20 min, read-out: PBMC_GMCSF_pSTAT5 IC50, human PBMC, GM-CSF 5 ng/mL for 20 minutes, pSTAT5.
The mark [4] stands for this setting: read-out: PBMC_GMCSF_pSTAT5 IC50, human PBMC, GM-CSF 5 ng/mL for 20 minutes, pSTAT5.

Each structure is given as a SMILES string. Read-outs that look alike come from different tables or passages of the source.

One may read the IC50 as the concentration that gives 50% inhibition. On to `CNc1cc(Nc2cccn(-c3ncco3)c2=O)nc2c(C(=O)NC3CC3)cnn12` [I-715], for which the IC50 in assay [1] was under 100 nM; in assay [2] (setting [3]) it was over 2500 nM.
As for `CNc1cc(Nc2cccn(-c3ncco3)c2=O)nc2c(C(=O)N[C@H]3C[C@H]3F)cnn12` [I-716], the values for the 50% inhibitory concentration (IC50) in assay [1] and in assay [2] (setting [3]) were under 100 nM and over 2500 nM, respectively.
The matching figures for `CNc1cc(Nc2cccn(-c3cnc(C)o3)c2=O)nc2c(C(=O)N[C@H]3C[C@H]3F)cnn12` [I-718]: under 100 nM and over 12500 nM.
For `CNc1cc(Nc2cccn([C@H]3CC[C@](C)(OC)CC3)c2=O)nc2c(C(=O)N[C@@H]3CC[C@@H]3O)cnn12` [I-722, N-((1S,2R)-2-hydroxycyclobutyl)-5-((1-((1R,4S)-4-methoxy-4-methylcyclohexyl)-2-oxo-1,2-dihydropyridin-3-yl)amino)-7-(methylamino)pyrazolo[1,5-a]pyrimidine-3-carboxamide], the IC50 in assay [1] is under 100 nM; in assay [2] (setting [4]) it was over 12500 nM.
Take `CNc1cc(Nc2cccn([C@H]3CCCOC3)c2=O)nc2c(C(=O)N[C@@H]3CC[C@H]3O)cnn12` [I-725]: the figures for the IC50 in assay [1] and in assay [2] (setting [3]) were under 100 nM and over 2500 nM, respectively.
For `CNc1cc(Nc2cc(Cl)cn(C3CCCN(C)C3)c2=O)nc2c(C(=O)NC3CC3)cnn12` (stereo not shown) [I-740] the same measures were under 100 nM and over 2500 nM.
For `CNc1cc(Nc2cccn(-c3cccnc3)c2=O)nc2c(C(=O)NC3CC3)cnn12` [I-747] the same measures were 100 to 500 nM and over 12500 nM.
For `CNc1cc(Nc2cccn(-c3cccnc3)c2=O)nc2c(C(=O)N[C@@H]3C[C@@H]3F)cnn12` [I-748], the IC50 in assay [1] is under 100 nM; in assay [2] (setting [3]), over 2500 nM.
For `CNc1cc(Nc2cccc3ocnc23)nc2c(C(=O)NCC(C)(C)CO)cnn12` [I-750] the same measures were under 100 nM and over 2500 nM.
As for `CNc1cc(Nc2cccn([C@@H]3CCCOC3)c2=O)nc2c(C(=O)N[C@H]3CC[C@H]3O)cnn12` [I-751], the IC50 in assay [1] is under 100 nM; in assay [2] (setting [3]) it was over 12500 nM.
The matching figures for `CNc1cc(Nc2cc(Cl)cn(C3CCCN(C)C3)c2=O)nc2c(C(=O)N[C@@H]3C[C@@H]3F)cnn12` (stereo partly shown) [I-759]: under 100 nM and over 50000 nM.
For `CNc1cc(Nc2cccn(-c3cnco3)c2=O)nc2c(C(=O)N[C@@H]3C[C@@H]3F)cnn12` [I-762] the same measures were under 100 nM and over 2500 nM.
For the molecule `CNc1cc(Nc2cccc3ocnc23)nc2c(C(=O)N[C@@H]3CC[C@@H]3O)cnn12` [I-770], the IC50 in assay [1] is under 100 nM; in assay [2] (setting [4]) it was over 2500 nM.
Turning to `CNc1cc(Nc2cc(Cl)cn([C@H]3CCCOC3)c2=O)nc2c(C(=O)N[C@@H]3C[C@@H]3F)cnn12` [I-772], the figures for the concentration for half-maximal inhibition (IC50) in assay [1] and in assay [2] (setting [3]) were under 100 nM and over 300 nM, respectively.
Regarding `CNc1cc(Nc2cc(Cl)cn([C@@H]3CCCOC3)c2=O)nc2c(C(=O)N[C@@H]3C[C@@H]3F)cnn12` [I-773], the IC50 in assay [1] was under 100 nM; in assay [2] (setting [3]), over 12500 nM.
As for `CNc1cc(Nc2cc(Cl)cn([C@H]3CCCOC3)c2=O)nc2c(C(=O)NC3CC3)cnn12` [I-782], the 50% inhibitory concentration (IC50) in assay [1] is under 100 nM; in assay [2] (setting [3]), over 50000 nM.
Regarding `CNc1cc(Nc2cc(Cl)cn([C@@H]3CCCOC3)c2=O)nc2c(C(=O)NC3CC3)cnn12` [I-783], the half-inhibitory concentration (IC50) in assay [1] was under 100 nM; in assay [2] (setting [3]), over 50000 nM.
For `CNc1cc(Nc2cc(Cl)cn(C3CCN(C)CC3)c2=O)nc2c(C(=O)N[C@@H]3C[C@@H]3F)cnn12` [I-789] the same measures were under 100 nM and over 12500 nM.
Consider `CNc1cc(Nc2cccn(-c3ocnc3C)c2=O)nc2c(C(=O)N[C@@H]3C[C@@H]3F)cnn12` [I-790], for which the 50% inhibitory concentration (IC50) is under 100 nM in assay [1] and over 12500 nM in assay [2] (setting [3]).
Consider `CCONC(=O)c1cnn2c(NC)cc(Nc3cccn(-c4ncccc4F)c3=O)nc12` [I-798, N-ethoxy-5-((3′-fluoro-2-oxo-2H-[1,2′-bipyridin]-3-yl)amino)-7-(methylamino) pyrazolo[1,5-a]pyrimidine-3-carboxamide], for which the IC50 in assay [1] was […]; in assay [2] (Homo sapiens, PBMC, 20 min, read-out: PBMC_GMCSF_pSTAT5 IC50) it was over 50000 nM.
For the molecule `CNc1cc(Nc2cccn(-c3ccccn3)c2=O)nc2c(C(=O)N[C@H]3CC[C@H]3O)cnn12` [I-805], the IC50 in assay [1] is under 100 nM; in assay [2] (setting [3]), over 12500 nM.
For `CNc1cc(Nc2cccn([C@H]3[C@@H]4COC[C@@H]43)c2=O)nc2c(C(=O)N[C@@H]3C[C@@H]3F)cnn12` [I-811] the same measures were under 100 nM and over 50000 nM.
Consider `CNc1cc(Nc2cc(Cl)cn([C@@H]3CCCN(C)C3)c2=O)nc2c(C(=O)NC3CC3)cnn12` [I-819], for which the half-maximal inhibitory concentration (IC50) in assay [1] is under 100 nM; in assay [2] (setting [3]), over 50000 nM.
Regarding `CNc1cc(Nc2cc(Cl)cn([C@H]3CCCN(C)C3)c2=O)nc2c(C(=O)NC3CC3)cnn12` [I-820], the IC50 is under 100 nM in assay [1] and over 12500 nM in assay [2] (setting [3]).
For `CNc1cc(Nc2cc(Cl)cn(C3CCOCC3)c2=O)nc2c(C(=O)N[C@@H]3CC[C@H]3O)cnn12` [I-825] the same measures were under 100 nM and over 50000 nM.
For `CNc1cc(Nc2cccc(N3CCO[C@]4(CCOC4)C3)n2)nc2c(C(=O)NC3CC3)cnn12` [I-827] the same measures were 100 to 500 nM and over 50000 nM.
The matching figures for `CNc1cc(Nc2cccn([C@H]3CC[C@H](OC)CC3)c2=O)nc2c(C(=O)NC[C@H](C)CO)cnn12` [I-829]: under 100 nM and over 50000 nM.
Consider `CNc1cc(Nc2cccc3ocnc23)nc2c(C(=O)N[C@H]3COC[C@H]3O)cnn12` [I-834], for which the IC50 in assay [1] is 100 to 500 nM; in assay [2] (setting [3]) it was over 50000 nM.
The matching figures for `CNc1cc(-c2cn(CCN3CCCCC3)c3ncccc23)nc2c(C(=O)N[C@@H]3CC[C@H]3O)cnn12` [I-837]: under 100 nM and over 12500 nM.
The matching figures for `CNc1cc(Nc2cccn([C@@H]3CCC[C@H](OC)C3)c2=O)nc2c(C(=O)N[C@@H]3C[C@@H]3F)cnn12` [I-840]: under 100 nM and over 50000 nM.
Take `CNc1cc(-c2cn(C(C)C)c3ncccc23)nc2c(C(=O)N[C@@H]3COC[C@@H]3O)cnn12` [I-842, N-((3R,4R)-4-hydroxytetrahydrofuran-3-yl)-5-(1-isopropyl-1H-pyrrolo[2,3-b]pyridin-3-yl)-7-(methylamino)pyrazolo[1,5-a]pyrimidine-3-carboxamide]: the IC50 in assay [1] is under 100 nM; in assay [2] (setting [3]) it was over 50000 nM.
As for `CNc1cc(Nc2cccn(C3CCN(CCF)CC3)c2=O)nc2c(C(=O)NCC(C)(C)CO)cnn12` [I-847], the IC50 in assay [1] is 100 to 500 nM; in assay [2] (setting [3]), over 50000 nM.
The matching figures for `CNc1cc(Nc2cccn(C3CCCN(CCF)C3)c2=O)nc2c(C(=O)N[C@@H]3C[C@@H]3F)cnn12` (stereo partly shown) [I-849]: 100 to 500 nM and over 50000 nM.
As for `CNc1cc(Nc2cc(Cl)cn([C@H]3CCCN(C)C3)c2=O)nc2c(C(=O)N[C@@H]3C[C@@H]3F)cnn12` [I-854], the concentration for half-maximal inhibition (IC50) in assay [1] is under 100 nM; in assay [2] (setting [3]), over 50000 nM.
Consider `CNc1cc(Nc2cccc3ocnc23)nc2c(C(=O)N[C@@H]3CC[C@H]3O)cnn12` [I-857], for which the half-maximal inhibitory concentration (IC50) is 100 to 500 nM in assay [1] and over 50000 nM in assay [2] (setting [4]).
`CNc1cc(Nc2cccc(-c3cn(C)nc3F)n2)nc2c(C(=O)N[C@@H]3C[C@@H]3F)cnn12` [I-860]: the IC50 was under 100 nM in assay [1] and over 50000 nM in assay [2] (setting [3]).
For `CNc1cc(Nc2cc(Cl)cn(C3CCN(C)CC3)c2=O)nc2c(C(=O)NC3CC3)cnn12` [I-883] the same measures were under 100 nM and over 12500 nM.
The matching figures for `CNc1cc(-c2cn(CCN3CCOCC3)c3ncccc23)nc2c(C(=O)N[C@H]3CC[C@@H]3OC)cnn12` [I-886]: under 100 nM and over 300 nM.
The matching figures for `CNC(=O)c1occc1Nc1cc(NC)n2ncc(C(=O)NC3CC3)c2n1` [I-887]: under 100 nM and over 50000 nM.
On to `CNC(=O)c1occc1Nc1cc(NC)n2ncc(C(=O)N[C@@H]3C[C@@H]3F)c2n1` [I-888, N-((1R,2S)-2-fluorocyclopropyl)-7-(methylamino)-5-((2-(methylcarbamoyl)furan-3-yl)amino)pyrazolo[1,5-a]pyrimidine-3-carboxamide], for which the results for the IC50 in assay [1] and in assay [2] (setting [3]) were under 100 nM and over 50000 nM, respectively.
The matching figures for `CNc1cc(Nc2cccn3ccnc23)nc2c(C(=O)NC3CC3)cnn12` [I-891]: under 100 nM and over 50000 nM.
The matching figures for `CNc1cc(Nc2cccn3ccnc23)nc2c(C(=O)N[C@@H]3C[C@@H]3F)cnn12` [I-892]: under 100 nM and over 12500 nM.
As to `CNc1cc(Nc2cccn(-c3ccccn3)c2=O)nc2c(C(=O)N[C@@H]3CC[C@H]3OC)cnn12` [I-908, N-((1R,2R)-2-methoxycyclobutyl)-7-(methylamino)-5-((2-oxo-2H-[1,2′-bipyridin]-3-yl)amino)pyrazolo[1,5-a]pyrimidine-3-carboxamide], the IC50 is under 100 nM in assay [1] and over 50000 nM in assay [2] (setting [4]).
In the case of `CNC(=O)c1nscc1Nc1cc(NC)n2ncc(C(=O)N[C@@H]3C[C@@H]3F)c2n1` [I-914], the figures for the IC50 in assay [1] and in assay [2] (setting [3]) were under 100 nM and over 50000 nM, respectively.
For `CNc1cc(Nc2cccn([C@H]3CC[C@@H]3O)c2=O)nc2c(C(=O)N[C@@H]3C[C@@H]3F)cnn12` [I-916], the values for the IC50 in assay [1] and in assay [2] (setting [3]) were under 100 nM and over 50000 nM, respectively.
For `CNc1cc(Nc2cccn(C(C)C)c2=O)nc2c(C(=O)N[C@@H]3CC[C@H]3O)cnn12` [I-918] the same measures were under 100 nM and over 50000 nM.
The matching figures for `CNc1cc(Nc2cc(Cl)cn(C3CCN(C)CC3)c2=O)nc2c(C(=O)N[C@@H]3CC[C@H]3O)cnn12` [I-930]: under 100 nM and over 50000 nM.
